The values below come from paper PMC3561128, “Preclinical evaluation of carbon-11 and fluorine-18 sulfonamide derivatives for in vivo radiolabeling of erythrocytes” (EJNMMI Research, 2013).

pKi: −log10 of the molar value. “And” between values parts separate entries of the source, which are not always exact repeats. Equal values may be shown once. Read-outs that look alike come from different tables or passages of the source.

The target of one data set is hCA I (Homo sapiens, UniProt P00915). The data set is described as follows: CA-catalyzed CO2 hydration, stopped-flow inhibition assay. Type of data set: biochemical. The following applies: human (cloned) isozyme; CO2 hydration reaction at 20°C; n = 3. How it is done:
(§1) Phenol red (0.2 mM) was used as indicator, working at the absorbance maximum of 557 nm, with 10 mM Hepes as buffer (pH 7.5) and 0.1 M Na2SO4 (for maintaining constant ionic strength) at 25°C following the CA-catalyzed CO2 hydration reaction for a period of 10 to 100 s (the uncatalyzed reaction needs around 60 to 100 s under assay conditions, whereas the catalyzed reactions take around 6 to 10 s). The CO2 concentrations ranged from 1.7 to 17 mM for the determination of kinetic parameters. Each compound was tested in the concentration range between 0.01 nM to 100 μM. The uncatalyzed rates were determined in the same manner and subtracted from the total observed rates. Stock solutions of the compounds (0.1 mM) were prepared in distilled water with 10% to 20% (v/v) DMSO (which is non-inhibitory at these concentrations), and dilutions up to 0.01 nM were made with distilled water. Inhibitor and enzyme solutions were preincubated together for 15 min at room temperature prior to the assay, in order to allow the formation of enzyme-inhibitor complex. The inhibition constants were obtained by nonlinear least square methods using PRISM 3 (GraphPad Software, La Jolla, CA, USA), and they represent the mean from at least three different determinations.

Another data set deals with hCA II (Homo sapiens, UniProt P00918). Described as above. Type of data set: biochemical. The following applies: human (cloned) isozyme; CO2 hydration reaction at 20°C; n = 3. As to the method: as §1
A short description of data set [1]: Log D (1-octanol/phosphate buffer pH 7.4), shake flask method. Type of data set: physicochemical. As to the method:
Determination of the distribution coefficient (log D1-octanol/phosphate buffer pH 7.4), was carried out by a shake flask method. An aliquot (25 μL) of the tracer agents ^18F]-(3), ^11C]-(4), ^18F]-(5), or ^11C]-(6) (185 to 555 kBq/mL) was added to a polypropylene tube (5 mL; Sarstedt, Nümbrecht, Germany) containing 2 mL of 0.025 M sodium phosphate buffer pH 7.4 and 2 mL of 1-octanol. The tube was vortexed for 2 min at room temperature followed by centrifugation at 3,000 rpm for 10 min (Eppendorf centrifuge 5810, Eppendorf, Westbury, NY, USA). Aliquots of 50 μL of the 1-octanol phase and 500 μL of the phosphate buffer phase were pipetted into separate tared Eppendorf tubes with adequate care to avoid cross contamination between the two phases. The samples were weighed, and radioactivity was quantified using an automated gamma counter. The experiments were carried out sixfold.

Data set [2] is described as follows: Biodistribution studies in NMRI mice. Type of data set: in vivo. Conditions: i.v.; for Percentage of ID, blood: blood mass assumed 7% of body mass. How it is done: The biodistribution studies were performed in wild-type NMRI mice with body weights ranging from 30 to 40 g. Mice were intravenously injected with 0.1 MBq of ^18F]-(3) or ^18F]-(5) and 5.5 MBq of ^11C]-(4) or ^11C]-(6) under anesthesia (2% isoflurane in O2 at a flow rate of 1 L/min). The animals were killed by decapitation at 2 min or 60 min p.i. (n = 4/time point for ^18F]-(3), ^11C]-(4), and ^11C]-(6); n = 6 for ^18F]-(5)). Blood was collected, and all major organs were dissected and collected in tarred tubes and were weighed. The radioactivity in each organ was counted using an automated gamma counter, corrected for background radioactivity and expressed as follows: percentage of the injected dose (% ID) or as standardized uptake value (SUV) (SUV = (Counts in tissue per gram of tissue) / (Injected counts per total body mass (g)). For the calculation of total radioactivity in the blood, blood mass was assumed to be 7% of the body mass.

Data set [3] has as its system RBCs. Also noted: method as in PMID 1647382, PMID 1647383. Conditions: rats, 24 h p.i.; cited from earlier work.
The subject of data set [4] is RBCs. Also noted: method as in PMID 1647382, PMID 1647383. The following applies: human volunteers, 24 h p.i.; cited from earlier work.

Chain of hCA I (P00915 whole entry): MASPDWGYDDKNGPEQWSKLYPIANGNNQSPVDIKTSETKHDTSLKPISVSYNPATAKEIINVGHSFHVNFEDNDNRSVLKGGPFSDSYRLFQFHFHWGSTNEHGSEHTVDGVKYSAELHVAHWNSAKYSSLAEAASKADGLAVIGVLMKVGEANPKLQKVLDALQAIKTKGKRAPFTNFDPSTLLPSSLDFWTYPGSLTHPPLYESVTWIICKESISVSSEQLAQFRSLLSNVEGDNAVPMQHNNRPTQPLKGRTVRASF

With `NS(=O)(=O)c1ccc(CCNC(=O)c2ccc(OCCF)cc2)cc1` [(3)], the negative logarithm of the Ki (pKi) is 7.02 at hCA I and 8.10 at hCA II. Also, in data set [1], the logD was found to be 1.13.

Turning to `COc1ccc(C(=O)NCCc2ccc(S(N)(=O)=O)cc2)cc1` [(4)], the pKi is 6.41 at hCA I and 7.70 on hCA II. The same compound yielded a logD in data set [1] of 1.19.

As to `NS(=O)(=O)c1ccc(OCCF)cc1` [(5)], the values for the negative logarithm of the Ki (pKi) on hCA I and on hCA II were 4.51 and 6.47, respectively. In data set [1], this compound showed a logD of 0.32.

For the compound `COc1ccc(S(N)(=O)=O)cc1` [(6)], the values for the negative logarithm of the Ki (pKi) at hCA I and at hCA II were 4.61 and 6.37, respectively. Besides, the log distribution coefficient (logD) in data set [1] was 0.42.

The compound `NS(=O)(=O)c1ccc(CCNC(=O)c2ccc(OCC[18F])cc2)cc1` [[^18F]-(3), 4-(2-[^18F]fluoroethoxy)benzoyl aminoethylbenzenesulfonamide] gave a negative logarithm of the Ki (pKi) at hCA II of 8.10. Besides, in data set [2] (2 min p.i.), the “Percentage of ID, brain” value worked out at 0.2 ± 0.0 % ID; the “Percentage of ID, carcass” value is 18.10 ± 2.32 % ID; the “Percentage of ID, heart” value was found to be 0.8 ± 0.0 % ID; the “Percentage of ID, intestines” value is 5.9 ± 0.8 % ID. In addition, in data set [2] (2 min p.i.), the “Percentage of ID, kidneys” value is listed as 10.6 ± 0.8 % ID; the “Percentage of ID, liver” value was found to be 15.8 ± 1.5 % ID; the “Percentage of ID, lungs” value amounted to 2.3 ± 0.5 % ID; the “Percentage of ID, spleen + pancreas” value was 1.3 ± 0.2 % ID. In data set [2] (2 min p.i.), the “Percentage of ID, stomach” value is recorded as 0.7 ± 0.1 % ID; the “Percentage of ID, urine” value is listed as 0.2 ± 0.1 % ID; the “SUV, blood” value was found to be 10.1 ± 0.6; the “SUV, brain” value turned out to be 0.2 ± 0.0. For the same compound, in data set [2] (2 min p.i.), the “SUV, heart” value is listed as 2.3 ± 1.3; the “SUV, kidneys” value is given as 5.6 ± 0.6; the “SUV, liver” value is listed as 3.2 ± 0.2; the “SUV, lungs” value is given as 3.5 ± 1.0. In addition, in data set [2] (2 min p.i.), the “SUV, spleen” value is given as 1.6 ± 0.2 and the “Percentage of ID, blood” value worked out at 71.0 ± 4.3 % ID. Also, in data set [2] (60 min p.i.), the “Percentage of ID, brain” value was 0.2 ± 0.1 % ID; the “Percentage of ID, carcass” value is reported as 31.35 ± 3.67 % ID; the “Percentage of ID, heart” value was found to be 0.2 ± 0.2 % ID; the “Percentage of ID, intestines” value is given as 18.6 ± 1.0 % ID. Moreover, in data set [2] (60 min p.i.), the “Percentage of ID, kidneys” value is reported as 2.8 ± 0.1 % ID; the “Percentage of ID, liver” value is on record as 8.3 ± 1.2 % ID; the “Percentage of ID, lungs” value is 0.7 ± 0.3 % ID; the “Percentage of ID, spleen + pancreas” value is 0.9 ± 0.3 % ID. In data set [2] (60 min p.i.), the “Percentage of ID, stomach” value is on record as 1.9 ± 1.3 % ID; the “SUV, blood” value is 4.5 ± 0.3; the “SUV, brain” value is given as 0.1 ± 0.0; the “SUV, heart” value came to 0.5 ± 0.4. For the same compound, in data set [2] (60 min p.i.), the “SUV, kidneys” value came out at 1.6 ± 0.1; the “SUV, liver” value is 1.7 ± 0.3; the “SUV, lungs” value is on record as 1.1 ± 0.4; the “SUV, spleen” value amounted to 1.1 ± 0.3. Further, the “Percentage of ID, blood” value in data set [2] (60 min p.i.) is 32 % ID and 31.7 ± 2.1 % ID.

On to `NS(=O)(=O)c1ccc(I)cc1` [p-iodobenzenesulfonamide], for which the entries for the “Activity associated with RBCs” value in the data set with RBCs [3] and with RBCs [4] were “about 50 % of the injected dose” and “more than 88 % of the ID”, respectively.
